# Reference: patent US20260109695A1, “PEROXIREDOXIN 3 INHIBITORS AND METHODS OF USE FOR TREATING CANCER” (WAKE FOREST UNIVERSITY HEALTH SCIENCES, priority 2022, published 2026)
# pEC50: −log10 of the molar value.
# Experiments:
# [1] = test system: human SK-OV-3 ovarian cancer cells; assay: Cellular Activity Assay (cytotoxicity, crystal violet); format: cell-based; details: SK-OV-3 cells, 48 hr treatment
# Source text: (§1) To test the activity of compounds, two complimentary assays were used as described below. The Biochemical PRX3 Inhibition Assay tests the ability of each compound to crosslink PRX3 in a simple, in vitro system. In the Cellular Activity Assay, we are testing the ability of compounds to kill SK-OV-3 ovarian cancer cells.
# The Cellular Activity Assay measures the EC50 of each compound in human SK-OV-3 ovarian cancer cells TS to be taken into the cell, transported to the mitochondria, and crosslink PRX3.
# The cytotoxicity of compounds was measured as described in Nelson et al. (2021) Antioxidants (Basel) 10, 150; Cunniff et al. (2015) PloS one 10, e0127310; and Newick et al. (2012) PloS one 7, e39404. SK-OV-3 is an adherent, epithelial, adenocarcenoma cell line obtained from ATCC (ref #: HTB-77). SK-OV-3 cells are resistant to the commonly used chemotherapeutics, cis-platinum and doxorubicin. For this PRX3 crosslinking assay, SK-OV-3 cells were plated in a 96-well plate. After 24 h recovery, the cells were treated for 48 hr with multiple concentrations of each compound ranging from 0.1-100 μM.
# Cells were washed with PBS to remove dead cells and the remaining live cells were fixed with 3.0% formaldehyde and stained with 0.1% crystal violet. The amount of crystal violet was determined by reading the absorbance at 540 nm (crystal violet dye dissolved in 100% methanol) using a plate reader. The signal for crystal violet dye is proportional to the biomass of remaining live cells. GraphPad Prism9 software was used to calculate the effective inhibitory concentration (EC50) of test compounds. Results for each compound, are normalized to the amount of cells in control wells treated with the equivalent concentration of DMSO (negative control). TS or Compound B were included in each set of assays as a positive control.
# purified human PRX3 = target: T1, purified human PRX3 (Homo sapiens, UniProt P30048); assay: Biochemical PRX3 Inhibition Assay (crosslink by SDS-PAGE, mono-adduct by MALDI-TOF MS); details: 1-2 hr at 37° C.
# T1 construct: made in house
# T1 sequence (P30048 62-256): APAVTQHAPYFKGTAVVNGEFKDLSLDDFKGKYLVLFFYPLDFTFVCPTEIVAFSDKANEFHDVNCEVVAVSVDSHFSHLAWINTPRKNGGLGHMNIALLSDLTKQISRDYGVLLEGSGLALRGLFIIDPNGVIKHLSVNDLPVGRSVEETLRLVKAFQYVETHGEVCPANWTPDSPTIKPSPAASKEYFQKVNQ
# Experimental: as §1
# This assay tests the ability of each compound to form a covalent adduct with PRX3. The assay is performed as described in Nelson et al. (2021) Antioxidants (Basel) 10, 150; and Cunniff et al. (2015) PloS one 10, e0127310, and follows the appearance of non-reducible PRX3 crosslinks by SDS PAGE gel electrophoresis and follows the appearance of single PRX3 adducts by mass spectrometry. For this assay, purified human PRX3, hydrogen peroxide (the PRX3 substrate) and all the components required to enable PRX3 to catalytically cycle (thioredoxin-thioredoxin reductase-NAPDH system) are included (details below).
# The biochemical PRX3 Inhibition assay contains 100 µM PRX3, 50 µM human TRX2, […] mouse thioredoxin reductase, and a NADPH regenerating system composed of 3.2 mM glucose 6-phosphate, 3.2 U/ml glucose 6-phosphate dehydrogenase and 0.4 mM NADPH. Samples are incubated for 1-2 hr at 37° C. with either 0.2 mM TS (positive control), compounds or an equivalent volume of DMSO (negative control). During this incubation, hydrogen peroxide is added to induce turnover of PRX3. Reactions are stopped by the addition of a buffer containing 100 mM dithiolthreitol (to break disulfide bonds) and SDS (detergent to denature proteins). NADPH, Glucose 6-Phosphate, and glucose 6-phosphate dehydrogenase were purchased from Sigma Aldrich. PRX3, thioredoxin, and thioredoxin reductase were all purified to >98% purity in the Lowther laboratory according to protocols referenced in Nelson et al. (2021) Antioxidants (Basel) 10, 150; and Cunniff et al. (2015) PloS one 10, e0127310.
# To measure the amount of PRX3 crosslink, proteins in the reaction were separated by SDS-polyacrlyamide gel electrophoresis and stained for total protein using GelCode Blue (Life Technologies). The amount of unmodified PRX3 and TS-PRX3 crosslink was measured by densiometric analysis of the signal for the PRX3 band running at the MW of a PRX3 crosslink (−46 kDa) compared to the PRX3 signal at the MW of the un-modified PRX3 (˜23 kD).
# To measure covalent adduct formation on a single PRX3 monomer, each reaction was exchanged into a mass spectrometry compatible buffer containing 40 mM ammonium citrate, pH 8.3 made in HPLC water. Sample was mixed 1:1 with a matrix solution containing 30 mg/mL sinapinic acid in 70% (vol/vol) acetonitrile, 0.2% formic acid and spotted to onto the sample plate. PRX3 mass was measured by MALDI-TOF MS analysis on a Bruker Daltonics MALDI-TOF MS spectrometer. Spectra were analyzed in FLEXAnalysis Software. The intensity of the reduced PRX3 peak (SH) and intensity of the analog adduct peak was determined and corrected for background signal at the adduct peak in the DMSO control. The fraction of single analog adduct in the monomer peak was determined by dividing the intensity of the adduct peak by the summed intensity of the SH and adduct peaks.
# Solubility Assay = format: physicochemical; details: 100 mM NaCl buffer, aqueous with cosolvent or surfactant or cyclodextrin, kinetic from dmso stock, 20 mM HEPES, pH 7.5, 18-24 hours at ambient temperature, read-out: Solubility
# Experimental: A 20 mM stock solution was made for each compound in DMSO. To measure solubility, 0.03-0.05 mL of the stock was added to 0.27 mL 20 mM HEPES, 100 mM NaCl, pH 7.5. The solution was mixed and rotated 18-24 hours at ambient temperature. The next day, solutions were centrifuged for 10 min at 20,000×g at 24° C. to remove insoluble, solid material. Next, 100 μL of the supernatant containing the soluble compound was added to 900 μL DMSO and High Performance Liquid Chromatography was performed as described in Table 1 and either HPLC gradient 1 (Table 2) for HPLC gradient 2 (Table 3). For each analog, a 200 μM standard and a 20 μM standard were prepared and run in parallel (standards were dissolved completely in 100% DMSO). The amount of compound in the experimental sample was calculated by comparing the area under the curve for compound peak to the area for the closest standard and correcting for dilution.
# [2] = test system: Enterococcus hirae (ATCC #10541); assay: Antimicrobial Activity Assay; format: cell-based; details: Enterococcus hirae, minimal inhibitory concentration; for MIC: ATCC10541, read-out: Antimicrobial Activity
# Experimental: The overnight growth was then diluted into growth media to make a single solution of E. hirae with a final optical density at 600 nm=0.02 AU. A 20 mM stock solution of Thiostrepton in DMSO was made and used to make multiple dilutions of TS in DMSO. Each TS dilution (0.1 mL) was then added to a test tube containing 10 mL of the diluted E. hirae and grown at 37° C. overnight while shaking at 180 rpm. The next morning, each tube was visually inspected to determine if the cells grew. Final concentrations tested were 0.120, 0.090, 0.075, 0.060, 0.045, 0.030, and 0.015 μM TS. […] Three replicates were made on three separate days (n=9). […] For TS analogs, the dilute E. hirae was treated with 20 µM final concentration of each analog (three replicates each). […] DMSO was used as a positive control (complete cell growth) and 20 µM thiostrepton was used as a negative control.
Structure (SMILES),pEC50 [1],PRX3 Inhibition (Crosslink + Mono-adduct) (purified human PRX3),solubility (Solubility Assay) [µM],MIC [2] [µM],Antimicrobial Activity [2]
"C=C(NC(=O)c1csc(N2CCC(NC(=O)OC(C)(C)C)CC2)n1)C(=O)NC(=C)C(=O)N1CCCCC1 [Compound 1, Tert-butyl (1-(4-((3-oxo-3-((3-oxo-3-(piperidin-1-yl)prop-1-en-2-yl)amino)prop-1-en-2-yl)carbamoyl)thiazol-2-yl)piperidin-4-yl)carbamate]",4.60 to 5.00,+++ (>90%),< 100,> 20,
"C=C(NC(=O)c1csc(N2CCC(NC(=O)OC(C)(C)C)CC2)n1)C(=O)NC(=C)C(=O)OCc1ccccc1 [Compound 2, Benzyl 2-(2-(2-(4-((tert-butoxycarbonyl)amino)piperidin-1-yl)thiazole-4-carboxamido)acrylamido)acrylate]",5.00 to 6.00,++ (50-90%),< 100,> 20,
"C=C(NC(=O)c1csc(N2CCC(NC(=O)OC(C)(C)C)CC2)n1)C(=O)NC(=C)C(=O)OCCOC [Compound 3, 2-Methoxyethyl 2-(2-(2-(4-((tert-butoxycarbonyl)amino)piperidin-1-yl)thiazole-4-carboxamido)acrylamido)acrylate]",4.60 to 5.00,+++ (>90%),100 to 1000,> 20,
"C=C(NC(=O)C(=C)NC(=O)c1csc(N2CCC(NC(=O)OC(C)(C)C)CC2)n1)C(=O)NCCOC [Compound 4, Tert-butyl (1-(4-((3-((3-((2-methoxyethyl)amino)-3-oxoprop-1-en-2-yl)amino)-3-oxoprop-1-en-2-yl)carbamoyl)thiazol-2-yl)piperidin-4-yl)carbamate]",4.60 to 5.00,+++ (>90%),100 to 1000,> 20,
"C=C(NC(=O)c1csc(N2CCC(NC(=O)OC(C)(C)C)CC2)n1)C(=O)NC(=C)C(=O)OC1CCOCC1 [Compound 5, Tetrahydro-2H-pyran-4-yl 2-(2-(2-(4-((tert-butoxycarbonyl)amino)piperidin-1-yl)thiazole-4-carboxamido)acrylamido)acrylate]",5.00 to 6.00,+++ (>90%),< 100,> 20,
"C=C(NC(=O)c1csc(N2CCC(NC(=O)OC(C)(C)C)CC2)n1)C(=O)NC(=C)C(=O)OCC1CCOCC1 [Compound 6, (Tetrahydro-2H-pyran-4-yl)methyl 2-(2-(2-(4-((tert-butoxycarbonyl)amino)piperidin-1-yl)thiazole-4-carboxamido)acrylamido)acrylate]",5.00 to 6.00,+++ (>90%),< 100,> 20,
"C=C(NC(=O)c1csc(N2CCC(NC(=O)OC(C)(C)C)CC2)n1)C(=O)NC(=C)C(=O)N(C)CCOC [Compound 7, Tert-butyl (1-(4-((3-((3-((2-methoxyethyl)(methyl)amino)-3-oxoprop-1-en-2-yl)amino)-3-oxoprop-1-en-2-yl)carbamoyl)thiazol-2-yl)piperidin-4-yl)carbamate]",4.00 to 4.60,+++ (>90%),100 to 1000,> 20,
"C=C(NC(=O)c1csc(N2CCC(NC(=O)OC(C)(C)C)CC2)n1)C(=O)NC(=C)c1nnc(C2CCOCC2)o1 [Compound 8, Tert-butyl (1-(4-((3-oxo-3-((1-(5-(tetrahydro-2H-pyran-4-yl)-1,3,4-oxadiazol-2-yl)vinyl)amino)prop-1-en-2-yl)carbamoyl)thiazol-2-yl)piperidin-4-yl)carbamate]",4.60 to 5.00,+++ (>90%),< 100,> 20,
"C=C(NC(=O)c1csc(N2CCC(NC(=O)OC(C)(C)C)CC2)n1)C(=O)NC(=C)C(=O)OC [Compound A, Methyl 2-(2-(2-(4-((tert-butoxycarbonyl)amino)piperidin-1-yl)thiazole-4-carboxamido)acrylamido)acrylate, reference compound]",,,< 100,,− (>20 μM)
"C=C(NC(=O)c1csc(-c2ccc(NC(=O)CCCCCBr)cc2)n1)C(=O)NC(=C)C(=O)OC [Compound B, Methyl 2-(2-(2-(4-(6-bromohexanamido)phenyl)thiazole-4-carboxamido)acrylamido)acrylate, reference compound]",,,< 100,,
